Data on 20 molecules can be found in patent publication US20100222349A1, “QUINOLINE DERIVATIVES USED TO TREAT INFLAMMATORY AND ALLERGIC DISEASES” (Glaxo Group Limited, priority 2007, published 2010).

Some results are limits rather than exact numbers.

One assay has as its target T1, histamine H3 receptor (Homo sapiens, UniProt Q9Y5N1).
T1 construct: expressed in transfected cells; host or cells: CHO K1 cells with pSwitch/pGeneH3 (GeneSwitch, mifepristone-induced), clone 3H3; membrane preparation
Description: Histamine H3 functional antagonist assay (GTPγS, membranes). Format: biochemical. As to conditions: CHO K1 membranes, [35S]-GTPγS, histamine at EC80; read-out: average pKi (pKb) at H3 (converted). The method, then: The histamine H3 cDNA is isolated from its holding vector, pcDNA3.1 TOPO (InVitrogen), by restriction digestion of plasmid DNA with the enzymes BamH1 and Not-1 and is ligated into the inducible expression vector pGene (InVitrogen) digested with the same enzymes. The GeneSwitchTM system (a system where in transgene expression is switched off in the absence of an inducer and switched on in the presence of an inducer) is performed as described in U.S. Pat. Nos. 5,364,791; 5,874,534; and 5,935,934. Ligated DNA is transformed into competent DH5α E. coli host bacterial cells and is plated onto Luria Broth (LB) agar containing ZeocinTM (an antibiotic which allows the selection of cells expressing the sh ble gene which is present on pGene and pSwitch) at 50 μgml^-1. Colonies containing the re-ligated plasmid are identified by restriction analysis. DNA for transfection into mammalian cells is prepared from 250 ml cultures of the host bacterium containing the […]3 plasmid and is isolated using a DNA preparation kit (Qiagen Midi-Prep) as per manufacturers guidelines (Qiagen). CHO K1 cells previously transfected with the pSwitch regulatory plasmid (InVitrogen) are seeded at 2×10^6 cells per T75 flask in Complete Medium, containing Hams F12 (GIBCOBRL, Life Technologies) medium supplemented with 10% v/v dialysed foetal bovine serum, L-glutamine, and hygromycin (100 μgml^-1), 24 h prior to use. Plasmid DNA is transfected into the cells using Lipofectamine plus according to the manufacturer's guidelines (InVitrogen). 48 h post transfection, cells are placed into complete medium supplemented with 500 μgml^-1 ZeocinTM. 10-14 days post selection, 10 nM Mifepristone (InVitrogen) is added to the culture medium to induce the expression of the receptor. 18 h post induction, cells are detached from the flask using ethylenediamine tetra-acetic acid (EDTA; 1:5000; InVitrogen), following several washes with PBS, pH 7.4 and are resuspended in Sorting Medium containing Minimum Essential Medium (MEM), without phenol red, and are supplemented with Earles salts and 3% Foetal Clone II (Hyclone). Approximately 1×10^7 cells are examined for receptor expression by staining with a rabbit polyclonal antibody, 4a, raised against the N-terminal domain of the histamine H3 receptor, are incubated on ice for 60 min, followed by two washes in sorting medium. Receptor bound antibody is detected by incubation of the cells for 60 min on ice with a goat anti rabbit antibody, conjugated with Alexa 488 fluorescence marker (Molecular Probes). Following two further washes with Sorting Medium, cells are filtered through a 50 μm FilconTM (BD Biosciences) and then are analysed on a FACS Vantage SE Flow Cytometer fitted with an Automatic Cell Deposition Unit. Control cells are non-induced cells treated in an analogous manner. Positively stained cells are sorted as single cells into 96-well plates, containing Complete Medium containing 500 μgml^-1 ZeocinTM and are allowed to expand before reanalysis for receptor expression via antibody and ligand binding studies. One clone, 3H3, is selected for membrane preparation. All steps of the protocol are carried out at 4° C. and with pre-cooled reagents. The cell pellet is resuspended in 10 volumes of homogenisation buffer (50 mM N-2-hydroxyethylpiperazine-N'-2-ethanesulfonic acid (HEPES), 1 mM ethylenediamine tetra-acetic acid (EDTA), pH 7.4 with KOH, supplemented with 10^-6 M leupeptin (acetyl-leucyl-leucyl-arginal; Sigma L2884), 25 μgml^-1 bacitracin (Sigma B0125), 1 mM phenylmethylsulfonyl fluoride (PMSF) and 2×10^-6 M pepstain A (Sigma)). The cells are then homogenised by 2×15 sec bursts in a 1 L glass Waring blender, followed by centrifugation at 500 g for 20 min. The supernatant is then spun at 48,000 g for 30 min. The pellet is resuspended in homogenisation buffer (4× the volume of the original cell pellet) by vortexing for 5 sec, followed by homogenisation in a Dounce homogeniser (10-15 strokes). […]
Background: GTPγS resists hydrolysis and so accumulates on activated G proteins.

Another assay deals with T2, human H1 receptor (Homo sapiens, UniProt P35367).
T2 construct: expressed in transfected cells
In words: Histamine H1 functional antagonist assay: determination of functional pKi values (FLIPR). The assay is classed as cell-based. The note with it: CHO cells expressing human H1 receptor, histamine at EC80, read-out: average pKi (pKb) at H1 (converted). As for the experimental part: The human H1 receptor is cloned using known procedures described in the literature [Biochem. Biophys. Res. Commun., 201(2):894 (1994)]. Chinese hamster ovary (CHO) cells stably expressing the human H1 receptor are generated according to known procedures described in the literature [Br. J. Pharmacol., 117(6):1071 (1996)]. The histamine H1 cell line is seeded into non-coated black-walled clear bottom 384-well tissue culture plates in alpha minimum essential medium (Gibco/Invitrogen, cat no. 22561-021), supplemented with 10′)/0 dialysed foetal calf serum (Gibco/Invitrogen cat no. 12480-021) and 2 mM L-glutamine (Gibco/Invitrogen cat no 25030-024) and is maintained overnight at 5% CO2, 37° C. Excess medium is removed from each well to leave 10 μl. 30 μl loading dye (250 μM Brilliant Black, 2 μM Fluo-4 diluted in Tyrodes buffer+probenecid (145 mM NaCl, 2.5 mM KCl, 10 mM HEPES, 10 mM D-glucose, 1.2 mM MgCl2, 1.5 mM CaCl2, 2.5 mM probenecid, pH adjusted to 7.40 with NaOH 1.0 M)) is added to each well and the plates are incubated for 60 min at 5% CO2, 37° C. 10 μl of test compound, diluted to the required concentration in Tyrodes buffer+probenecid (or 10 μl Tyrodes buffer+probenecid as a control) is added to each well and the plate is incubated for 30 min at 37° C., 5% CO2. The plates are then placed into a FLIPR™(Molecular Devices, UK) to monitor cell fluorescence (λex=488 nm, λEM=540 nm) in the manner described in Sullivan et al., (In: Lambert DG (ed.), Calcium Signaling Protocols, New Jersey: Humana Press, 1999, 125-136) before and after the addition of 10 μl histamine at a concentration that results in the final assay concentration of histamine being EC80. Functional antagonism is indicated by a suppression of histamine induced increase in fluorescence, as measured by the FLIPR™ system (Molecular Devices). By means of concentration effect curves, functional affinities are determined using standard pharmacological mathematical analysis.

T1 sequence (Q9Y5N1 whole entry, species assumed): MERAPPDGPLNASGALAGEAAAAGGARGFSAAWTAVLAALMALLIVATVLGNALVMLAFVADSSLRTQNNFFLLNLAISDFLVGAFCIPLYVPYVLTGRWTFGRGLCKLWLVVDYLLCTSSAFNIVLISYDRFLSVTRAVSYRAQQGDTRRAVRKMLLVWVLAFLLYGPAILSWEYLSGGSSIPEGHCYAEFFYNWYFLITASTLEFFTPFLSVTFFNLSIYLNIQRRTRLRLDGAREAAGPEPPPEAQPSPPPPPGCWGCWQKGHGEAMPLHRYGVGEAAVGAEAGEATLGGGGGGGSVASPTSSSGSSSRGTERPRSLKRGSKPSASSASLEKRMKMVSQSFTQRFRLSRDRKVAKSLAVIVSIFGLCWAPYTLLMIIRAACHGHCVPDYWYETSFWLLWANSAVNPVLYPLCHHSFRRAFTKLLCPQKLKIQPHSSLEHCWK
T2 sequence (P35367 whole entry): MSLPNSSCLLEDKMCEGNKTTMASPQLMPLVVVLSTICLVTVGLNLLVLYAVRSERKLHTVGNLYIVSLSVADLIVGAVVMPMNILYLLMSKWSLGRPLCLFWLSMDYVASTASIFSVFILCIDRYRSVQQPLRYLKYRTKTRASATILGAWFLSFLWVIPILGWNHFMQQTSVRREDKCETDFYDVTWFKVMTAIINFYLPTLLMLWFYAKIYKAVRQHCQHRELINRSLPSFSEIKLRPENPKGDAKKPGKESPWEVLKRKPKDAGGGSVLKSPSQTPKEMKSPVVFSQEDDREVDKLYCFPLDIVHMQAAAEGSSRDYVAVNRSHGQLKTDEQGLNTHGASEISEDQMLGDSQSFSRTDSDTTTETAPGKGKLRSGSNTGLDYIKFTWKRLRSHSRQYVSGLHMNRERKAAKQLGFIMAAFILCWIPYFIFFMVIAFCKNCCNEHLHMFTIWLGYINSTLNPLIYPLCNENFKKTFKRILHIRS

Consider `CCCCc1cc(OC2CCN(CCCC(=O)NC(C)(C)C)CC2)c2ncccc2c1` [Example 6, 4-{4-[(6-Butyl-8-quinolinyl)oxy]-1-piperidinyl}-N-(1,1-dimethylethyl)butanamide], for which the results for the Ki on histamine H3 receptor and on human H1 receptor were > 316 nM and < 10 nM, respectively.

In the case of `CCCCc1cc(OC2CCN(CCC(=O)NCC)CC2)c2ncccc2c1` [Example 15, 3-{4-[(6-butyl-8-quinolinyl)oxy]-1-piperidinyl}-N-ethylpropanamide], the Ki on histamine H3 receptor was > 3160 nM; on human H1 receptor, < 100 nM.

Regarding `CCCCc1cc(OC2CCN(CC(=O)NCCOC)CC2)c2ncccc2c1` [Example 11, 2-{4-[(6-butyl-8-quinolinyl)oxy]-1-piperidinyl}-N-[2-(methyloxy)ethyl] acetamide], the figures for the Ki on histamine H3 receptor and at human H1 receptor were > 3160 nM and < 100 nM, respectively.

Regarding `CCCCc1cc(OC2CCN(C[C@H]3CC[C@H](C(=O)N4CCOCC4)CC3)CC2)c2ncccc2c1` [Example 63, 6-butyl-8-[(1-{[trans-4-(4-morpholinylcarbonyl)cyclohexyl]methyl}-4-piperidinyl)oxy]quinoline], the Ki at histamine H3 receptor was > 316 nM; on human H1 receptor, < 100 nM.

Regarding `CCCCc1cc(OC2CCN(CCCNC(=O)CCOC)CC2)c2ncccc2c1` [Example 82, N-(3-{4-[(6-butyl-8-quinolinyl)oxy]-1-piperidinyl}propyl)-3-(methyloxy) propanamide], the Ki was > 316 nM at histamine H3 receptor and < 10 nM on human H1 receptor.

As for `CCCCc1cc(OC2CCN(CCNC(=O)CCCOC)CC2)c2ncccc2c1` [Example 81, N-(2-{4-[(6-butyl-8-quinolinyl)oxy]-1-piperidinyl}ethyl)-4-(methyloxy) butanamide], the Ki was > 316 nM on histamine H3 receptor and < 10 nM on human H1 receptor.

On to `CCCCc1cc(OC2CCN(CCC(=O)N3CCCCC3)CC2)c2ncccc2c1` [Example 18, 6-butyl-8-({1-[3-oxo-3-(1-piperidinyl)propyl]-4-piperidinyl}oxy) quinoline], for which the Ki was > 316 nM at histamine H3 receptor and < 10 nM on human H1 receptor.

As for `CCCCc1cc(OC2CCN(CCNC(=O)C3CCCCC3)CC2)c2ncccc2c1` [Example 75, N-(2-{4-[(6-butyl-8-quinolinyl)oxy]-1-piperidinyl}ethyl) cyclohexane carboxamide], the Ki at histamine H3 receptor was > 316 nM; on human H1 receptor, < 10 nM.

Take `CCCCc1cc(OC2CCN(CCCCC(=O)NC(C)(C)C)CC2)c2ncccc2c1` [Example 30, 5-{4-[(6-butyl-8-quinolinyl)oxy]-1-piperidinyl}-N-(1,1-dimethylethyl) pentanamide]: the Ki is > 3160 nM on histamine H3 receptor and < 100 nM on human H1 receptor.

For the molecule `CCCCc1cc(OC2CCN(CCCCC(=O)NCCOC)CC2)c2ncccc2c1` [Example 29, 5-{4-[(6-butyl-8-quinolinyl)oxy]-1-piperidinyl}-N-[2-(methyloxy)ethyl] pentanamide], the values for the Ki on histamine H3 receptor and on human H1 receptor were > 3160 nM and < 100 nM, respectively.

For the molecule `CCCCc1cc(OC2CCN(CC3CCCNC3=O)CC2)c2ncccc2c1` (stereo not drawn) [Example 5, 3-({4-[(6-butyl-8-quinolinyl)oxy]-1-piperidinyl}methyl)-2-piperidinone], the Ki at histamine H3 receptor was > 316 nM; on human H1 receptor, < 10 nM.

Regarding `CCCCc1cc(OC2CCN(CCCCC(=O)N3CCCCC3)CC2)c2ncccc2c1` [Example 31, 6-butyl-8-({1-[5-oxo-5-(1-piperidinyl)pentyl]-4-piperidinyl}oxy) quinoline], the Ki at histamine H3 receptor is > 3160 nM; on human H1 receptor, < 10 nM.

Consider `CCCCc1cc(OC2CCN(CCCC(=O)NCCOC)CC2)c2ncccc2c1` [Example 23, 4-{4-[(6-butyl-8-quinolinyl)oxy]-1-piperidinyl}-N-[2-(methyloxy)ethyl] butanamide], for which the Ki is > 3160 nM on histamine H3 receptor and < 10 nM on human H1 receptor.

Consider `CCCCc1cc(OC2CCN(CCCCNC(=O)CC)CC2)c2ncccc2c1` [Example 64, N-(4-{4-[(6-Butyl-8-quinolinyl)oxy]-1-piperidinyl}butyl)propanamide], for which the results for the Ki on histamine H3 receptor and at human H1 receptor were > 316 nM and < 10 nM, respectively.

`CCCCc1cc(OC2CCN(CC(=O)NC(C)(C)C)CC2)c2ncccc2c1` [Example 12, 2-{4-[(6-butyl-8-quinolinyl)oxy]-1-piperidinyl}-N-(1,1-dimethylethyl) acetamide]: the Ki on histamine H3 receptor was > 3160 nM; on human H1 receptor it was < 100 nM.

For the molecule `CCCCc1cc(OC2CCN(C[C@H]3CC[C@H](C(=O)NCCC)CC3)CC2)c2ncccc2c1` [Example 45, Trans-4-({4-[(6-butyl-8-quinolinyl)oxy]-1-piperidinyl}methyl)-N-propylcyclohexane carboxamide], the Ki on histamine H3 receptor was > 316 nM; on human H1 receptor it was < 10 nM.

Consider `CCCCc1cc(OC2CCN(C[C@H]3CC[C@H](C(=O)N4CCCC4)CC3)CC2)c2ncccc2c1` [Example 62, 6-butyl-8-[(1-{[trans-4-(1-pyrrolidinylcarbonyl)cyclohexyl]methyl}-4-piperidinyl)oxy]quinoline], for which the Ki at histamine H3 receptor was > 316 nM; at human H1 receptor, < 10 nM.

`CCCCc1cc(OC2CCN(C[C@H]3CC[C@H](C(=O)NCCC(C)C)CC3)CC2)c2ncccc2c1` [Example 61, trans-4-({4-[(6-butyl-8-quinolinyl)oxy]-1-piperidinyl}methyl)-N-(3-methylbutyl) cyclohexane carboxamide]: the figures for the Ki on histamine H3 receptor and on human H1 receptor were > 316 nM and < 10 nM, respectively.

With `CCCCc1cc(OC2CCN(CCCCNC(=O)C(C)C)CC2)c2ncccc2c1` [Example 66, N-(4-{4-[(6-butyl-8-quinolinyl)oxy]-1-piperidinyl}butyl)-2-methylpropanamide], the Ki was > 316 nM on histamine H3 receptor and < 100 nM at human H1 receptor.

Turning to `CCCCc1cc(OC2CCN(CCCCC(=O)NC(C)C)CC2)c2ncccc2c1` [Example 32, 5-{4-[(6-butyl-8-quinolinyl)oxy]-1-piperidinyl}-N-(1-methylethyl) pentanamide], the Ki at human H1 receptor is < 10 nM.
